In the experiment the test system is Plasmodium berghei. As to the kind of experiment: Luciferase/luciferin-expressing antifolate-resistant parasites were used to infect a culture of HepG2 cells that were pre-incubated with compounds. Infected hepatocytes emit light due to the luciferase reaction. Assay results are presented as the percent inhibition of light emission compared to control. […]. Format: functional. The settings on record: sporozoite; for IC90: read-out: LUCIFERASE INFECTION ASSAY - IC90.

A value given as a limit tells only on which side of the number the result lay.

Drawing on ChEMBL document CHEMBL4483862, “Open-source discovery of chemical leads for next-generation chemoprotective antimalarials” (2018), this text covers IC50 and IC90 for 36 compounds.

On to `Cc1cc(NC(=O)c2cccc(S(=O)(=O)N3c4ccccc4CC3C)c2)no1` (configuration not stated), for which the IC90 is 1.24 µM. Under “PBLUC_HILL_SLOPE 18.4, PBLUC_R_SQUARED 0.605, read-out: LUCIFERASE INFECTION ASSAY - IC50”, the IC50 stood at 1.1 µM.
Turning to `CCOc1ccc(C(=O)NCc2ccco2)cc1Cl`, the concentration for an effect of 90% (IC90) is above 11.8 µM. Moreover, where the note is “PBLUC_HILL_SLOPE 19.7, PBLUC_R_SQUARED 0.665, read-out: LUCIFERASE INFECTION ASSAY - IC50”, the IC50 is 11.5 µM.
In the case of `Clc1ccc(CN=C(Nc2ccccc2)NC2CCCCC2)cc1`, the IC90 came to 9.45 µM. The IC50 (PBLUC_HILL_SLOPE 18.9, PBLUC_R_SQUARED 0.472, read-out: LUCIFERASE INFECTION ASSAY - IC50) amounted to 8.42 µM.
With `CN(C)c1nn(C(=O)Nc2cccc(C(F)(F)F)c2)cc1-c1ccccc1`, the IC90 was 8.43 µM. Besides, the IC50 (PBLUC_HILL_SLOPE 19.3, PBLUC_R_SQUARED 0.463, read-out: LUCIFERASE INFECTION ASSAY - IC50) was determined as 7.52 µM.
As to `O=C(NC1CCCC1)c1ccc(-c2cn3c(-c4ccc(CO)cc4)cnc3cn2)cc1`, the IC90 was determined as 7.79 µM. Also, the IC50 (PBLUC_HILL_SLOPE 20, PBLUC_R_SQUARED 0.468, read-out: LUCIFERASE INFECTION ASSAY - IC50) was 6.98 µM.
In the case of `COc1cccc(-c2cn3c(-c4cccc(O)c4)cnc3cn2)c1F`, the IC90 amounted to 3.69 µM. Besides, the IC50 (PBLUC_HILL_SLOPE 18.9, PBLUC_R_SQUARED 0.523, read-out: LUCIFERASE INFECTION ASSAY - IC50) is 3.28 µM.
Regarding `Cc1cc(-c2cn3c(-c4ccncc4)cnc3cn2)cc(C)c1O`, the concentration for an effect of 90% (IC90) is 10 µM. Further, the IC50 (PBLUC_HILL_SLOPE 18.9, PBLUC_R_SQUARED 0.365, read-out: LUCIFERASE INFECTION ASSAY - IC50) came to 8.93 µM.
With `Nc1nc(Sc2ncnc3sccc23)nc2sccc12`, the IC90 was 8.89 µM. The IC50 (PBLUC_HILL_SLOPE 20, PBLUC_R_SQUARED 0.321, read-out: LUCIFERASE INFECTION ASSAY - IC50) was determined as 7.96 µM.
As for `COc1cc(/C=C/C(=O)c2ccc(C#N)cc2)cc(Br)c1OCC(=O)N(C)C`, the IC90 was above 10 µM. In addition, the IC50 (PBLUC_HILL_SLOPE 20.1, PBLUC_R_SQUARED 0.243, read-out: LUCIFERASE INFECTION ASSAY - IC50) was 9.62 µM.
In the case of `CC(C)(C)c1ccc(C2Nc3ccccc3C(=O)N2C2CC2)cc1` (configuration not stated), the IC90 amounted to 9.91 µM. Moreover, the IC50 (PBLUC_HILL_SLOPE 18.7, PBLUC_R_SQUARED 0.174, read-out: LUCIFERASE INFECTION ASSAY - IC50) was 8.81 µM.
As to `O=C(NC1CC1)c1ccc(CN(Cc2csc(-c3ccsc3)n2)Cc2ccco2)cc1`, the IC90 stood at 1.57 µM. For the same compound, the IC50 (PBLUC_HILL_SLOPE 18.2, PBLUC_R_SQUARED 0.577, read-out: LUCIFERASE INFECTION ASSAY - IC50) was found to be 1.39 µM.
As to `COc1cccc(N(C)S(=O)(=O)c2cccc3cc(C)cnc23)n1`, the IC90 worked out at 3.82 µM. Moreover, the IC50 (PBLUC_HILL_SLOPE 18.8, PBLUC_R_SQUARED 0.316, read-out: LUCIFERASE INFECTION ASSAY - IC50) came out at 3.4 µM.
As for `COc1ccc(C2=CS/C(=C(/C#N)c3nnc4n3CCCCC4)N2c2ccccc2)cc1`, the IC90 is above 10 µM. For the same compound, the half-maximal inhibitory concentration (IC50) (PBLUC_HILL_SLOPE 18.4, PBLUC_R_SQUARED 0.0899, read-out: LUCIFERASE INFECTION ASSAY - IC50) was 9.78 µM.
Turning to `CN(C)c1cccc(-c2ccc3ncc(-c4ccoc4)n3n2)c1`, the IC90 is 9.49 µM. For the same compound, the IC50 (PBLUC_HILL_SLOPE 19.8, PBLUC_R_SQUARED 0.226, read-out: LUCIFERASE INFECTION ASSAY - IC50) was determined as 8.49 µM.
Consider `CC(=O)N(C)c1cccc(-c2cc3c(Nc4cccc(C(C)C)c4)nccc3n2C)c1`, for which the IC90 worked out at 3.76 µM. Further, where the note is “PBLUC_HILL_SLOPE 18.8, PBLUC_R_SQUARED 0.545, read-out: LUCIFERASE INFECTION ASSAY - IC50”, the IC50 is 3.34 µM.
As to `O=C(Nc1nn[nH]n1)c1ccc(S(=O)(=O)N2CCCCCC2)cc1`, the IC90 stood at 9.99 µM. The IC50 (PBLUC_HILL_SLOPE 18.6, PBLUC_R_SQUARED 0.124, read-out: LUCIFERASE INFECTION ASSAY - IC50) was determined as 8.88 µM.
In the case of `O=C(NC(c1ccccc1)C1CC1)C1=NN(c2ccccc2)C(=O)CN1` (configuration not stated), the IC90 was 9.85 µM. Moreover, the IC50 (PBLUC_HILL_SLOPE 18.7, PBLUC_R_SQUARED 0.556, read-out: LUCIFERASE INFECTION ASSAY - IC50) is 8.76 µM.
With `CCOc1cccc(-c2cn3c(-c4ccc(C(=O)N5CCN(C)CC5)cc4)cnc3cn2)c1`, the IC90 is 7.28 µM. The IC50 (PBLUC_HILL_SLOPE 18.7, PBLUC_R_SQUARED 0.82, read-out: LUCIFERASE INFECTION ASSAY - IC50) was found to be 6.48 µM.
Consider `Cc1ccc(NS(=O)(=O)c2ccc(NN=CC3C(=O)N(c4cccc(C(F)(F)F)c4)C(=O)c4ccccc43)c([N+](=O)[O-])c2)c(C)c1` (configuration not stated), for which the concentration for an effect of 90% (IC90) was above 10 µM. Also, for the setting “PBLUC_HILL_SLOPE 19.2, PBLUC_R_SQUARED 0.393, read-out: LUCIFERASE INFECTION ASSAY - IC50”, the IC50 was determined as 9.75 µM.
In the case of `CCOC(=O)C(c1ccc(Cl)cc1)N1CCN(C(=O)/C=C/c2ccc(OC)c(OC)c2)CC1` (configuration not stated), the IC90 was 3.62 µM. In addition, under “PBLUC_HILL_SLOPE 18.4, PBLUC_R_SQUARED 0.744, read-out: LUCIFERASE INFECTION ASSAY - IC50”, the IC50 amounted to 3.21 µM.
With `Cn1cc(-c2cnc3cnc(-c4ccccc4Oc4ccccc4)cn23)cn1`, the IC90 was determined as 3.5 µM. Further, the 50% inhibitory concentration (IC50) (PBLUC_HILL_SLOPE 18.2, PBLUC_R_SQUARED 0.499, read-out: LUCIFERASE INFECTION ASSAY - IC50) came to 3.1 µM.
On to `Cc1ccnc2nc(C(=O)Nc3cc(C(F)(F)F)ccc3N3CCCCCC3)nn12`, for which the IC90 worked out at 0.413 µM. Also, the concentration for half-maximal inhibition (IC50) (PBLUC_HILL_SLOPE 19, PBLUC_R_SQUARED 0.744, read-out: LUCIFERASE INFECTION ASSAY - IC50) turned out to be 0.368 µM.
Consider `Cc1cnc(NC(=O)C2CCN(S(=O)(=O)c3ccc(Cl)cc3)CC2)s1`, for which the IC90 stood at 3.13 µM. Also, the IC50 (PBLUC_HILL_SLOPE 19, PBLUC_R_SQUARED 0.695, read-out: LUCIFERASE INFECTION ASSAY - IC50) stood at 2.79 µM.
For the compound `CCN1CCN(c2ccc(NC(=O)c3csc(COc4ccc(F)cc4)n3)c(C)c2)CC1`, the IC90 worked out at 4.43 µM. For the setting “PBLUC_HILL_SLOPE 19.9, PBLUC_R_SQUARED 0.58, read-out: LUCIFERASE INFECTION ASSAY - IC50”, the IC50 was found to be 3.97 µM.
For the compound `CC(OC(=O)c1cc2c(s1)-c1ccccc1OC2)C(=O)N1CCNC1=O` (configuration not stated), the IC90 is above 10 µM. Moreover, under “PBLUC_HILL_SLOPE 18.2, PBLUC_R_SQUARED 0.638, read-out: LUCIFERASE INFECTION ASSAY - IC50”, the IC50 was 9.62 µM.
Take `CCC(C)c1ccc(-c2cc(C(=O)OCC(=O)c3c(N)n(C)c(=O)n(C)c3=O)c3ccccc3n2)cc1` (configuration not stated): the IC90 was above 10 µM. Moreover, under “PBLUC_HILL_SLOPE 18.2, PBLUC_R_SQUARED 0.259, read-out: LUCIFERASE INFECTION ASSAY - IC50”, the concentration for half-maximal inhibition (IC50) turned out to be 9.1 µM.
Turning to `O=C(CN1CCN(CC(=O)N(Cc2ccccc2)Cc2ccccc2)CC1)Nc1ccc(Cl)c(C(F)(F)F)c1`, the IC90 is above 10 µM. Also, the IC50 (PBLUC_HILL_SLOPE 18.3, PBLUC_R_SQUARED 0.38, read-out: LUCIFERASE INFECTION ASSAY - IC50) stood at 9.55 µM.
With `COc1ccc(-c2cnc3cnc(-c4cccc(C(=O)NCCO)c4)cn23)cc1`, the IC90 was 8.22 µM. Also, the IC50 (PBLUC_HILL_SLOPE 19.3, PBLUC_R_SQUARED 0.197, read-out: LUCIFERASE INFECTION ASSAY - IC50) was found to be 7.33 µM.
Take `Fc1ccc(COc2ccc3ccccc3c2CNCc2ccccn2)cc1`: the IC90 was above 8.86 µM. Moreover, the IC50 (PBLUC_HILL_SLOPE 18.6, PBLUC_R_SQUARED 0.616, read-out: LUCIFERASE INFECTION ASSAY - IC50) stood at 8.21 µM.
Take `O=C(NCC(=O)N1CCCC1)c1cccc2c3c([nH]c12)CCCCC3`: the 90% effect concentration (IC90) was determined as 3.72 µM. Where the note is “PBLUC_HILL_SLOPE 19.4, PBLUC_R_SQUARED 0.17, read-out: LUCIFERASE INFECTION ASSAY - IC50”, the IC50 amounted to 3.32 µM.
Take `Cc1nn(Cc2ccccc2Cl)c2sc(C(=O)OC(C)c3nc(=O)c4ccccc4[nH]3)cc12` (configuration not stated): the IC90 was above 10 µM. Under “PBLUC_HILL_SLOPE 18.8, PBLUC_R_SQUARED 0.168, read-out: LUCIFERASE INFECTION ASSAY - IC50”, the IC50 came out at 9.99 µM.
Regarding `O=C(Nc1cccc2c[nH]nc12)c1ccc(Oc2ccccc2)cc1`, the IC90 is above 10 µM. Moreover, the IC50 (PBLUC_HILL_SLOPE 18.4, PBLUC_R_SQUARED 0.556, read-out: LUCIFERASE INFECTION ASSAY - IC50) worked out at 9.05 µM.
With `CCCCOc1ccc(Nc2nc(C(N)Cc3ccc(F)cc3)cs2)nn1` (configuration not stated), the IC90 was above 8.52 µM. The IC50 (PBLUC_HILL_SLOPE 19.3, PBLUC_R_SQUARED 0.0642, read-out: LUCIFERASE INFECTION ASSAY - IC50) is 8.34 µM.
With `O=C(c1ccc(-n2cnc3ccccc3c2=O)cc1)N1CCN(S(=O)(=O)c2ccc3ccccc3c2)CC1`, the IC90 was above 10 µM. Also, the IC50 (PBLUC_HILL_SLOPE 18.8, PBLUC_R_SQUARED 0.0296, read-out: LUCIFERASE INFECTION ASSAY - IC50) came to 9.48 µM.
In the case of `Cc1c(S(=O)(=O)c2ccc(Cl)cc2)csc1C(=O)N(c1ccccc1)[S+](C)[O-]` (configuration not stated), the IC90 is 2.72 µM. Further, the IC50 (PBLUC_HILL_SLOPE 18.3, PBLUC_R_SQUARED 0.735, read-out: LUCIFERASE INFECTION ASSAY - IC50) amounted to 2.41 µM.
For `O=C1C=CC(=O)N1c1ccccc1Br`, the IC90 is above 13.1 µM. In addition, where the note is “PBLUC_HILL_SLOPE 18.8, PBLUC_R_SQUARED 0.535, read-out: LUCIFERASE INFECTION ASSAY - IC50”, the IC50 turned out to be 12.7 µM.

As a reminder, the IC50 is the concentration at which inhibition is half-maximal. Usually IC90 stands for the point of the concentration-response curve where the effect stands at 90%.
